Marks after values point to notes of the source that are not given here.
What was measured:
Type in all cases: in vivo, Wistar rats
[1] = system: caerulein-induced destruction of pancreatic tissue (DPT); assay: Water content of pancreatic tissue (pancreatic edema) in caerulein-induced destruction of pancreatic tissue; conditions: for Water content of pancreas: 6 hours after inducing DPT, % of wet weight, mean
Description: The experiments were performed using adult male Wistar rats. All experimental procedures were in compliance with currently accepted guidelines for care and use of animals. The study protocol was approved by the Bioethics Committee. Before the experiment, rats were given no food for 24 hours, water was available in unrestricted quantities. Destruction of pancreatic tissue (DPT) was induced by injections of caerulein (dose of 15 μg/kg/hr). Animals were randomly assigned to the following groups. […] After 6 hours from inducing DPT antioxidative effects were determined by means of measuring the ferric reducing ability of plasma (FRAP) and levels of the markers of oxidative stress: malonyldialdehyde and 4-hydroxynonenals (MDA+4-HNE). The measurement of pancreatic edema, the serum α-amylase activity and histopathological analysis of pancreas were carried out to assess the progress of the disease. […] Kynurenic acid in the dose of 50 mg/kg/hrs was also effective (Table 1). Since kynurenic acid prevents edema induced by the pancreas damaging factor caerulein, kynurenic acid, its salts and derivatives may be used in prevention and therapy of conditions leading to injury of pancreatic tissue.

[2] = system: caerulein-induced destruction of pancreatic tissue (DPT); assay: Plasma levels of lipid peroxidation products (MDA + 4-HNE) in caerulein-induced DPT; conditions: KYNA 100 mg/kg/hr + caerulein, mean
Description: (§1) The experiments were performed using adult male Wistar rats. All experimental procedures were in compliance with currently accepted guidelines for care and use of animals. The study protocol was approved by the Bioethics Committee. Before the experiment, rats were given no food for 24 hours, water was available in unrestricted quantities. Destruction of pancreatic tissue (DPT) was induced by injections of caerulein (dose of 15 μg/kg/hr). Animals were randomly assigned to the following groups. […] After 6 hours from inducing DPT antioxidative effects were determined by means of measuring the ferric reducing ability of plasma (FRAP) and levels of the markers of oxidative stress: malonyldialdehyde and 4-hydroxynonenals (MDA+4-HNE). The measurement of pancreatic edema, the serum α-amylase activity and histopathological analysis of pancreas were carried out to assess the progress of the disease. In the group of animals with caerulein-induced destruction of pancreatic tissue significant increase of concentration of malonyldialdehyde (MDA) and 4-hydroxynonenals (4-HNE), two markers of oxidative stress, occurred.

[3] = system: caerulein-induced destruction of pancreatic tissue (DPT); assay: Antioxidant capacity of plasma (FRAP) in caerulein-induced DPT; conditions: KYNA 100 mg/kg/hr + caerulein, mean
Description: as §1, with “disease.” for “disease. In the group of animals with caerulein-induced destruction of pancreatic tissue significant increase of concentration of malonyldialdehyde (MDA) and 4-hydroxynonenals (4-HNE), two markers of oxidative stress, occurred.”

[4] = system: caerulein-induced destruction of pancreatic tissue (DPT); assay: Histological changes in pancreatic tissue in caerulein-induced DPT; conditions: KYNA 100 mg/kg/hr + caerulein; mean ± SD; scale 0-3
Description: The experiments were performed using adult male Wistar rats. All experimental procedures were in compliance with currently accepted guidelines for care and use of animals. The study protocol was approved by the Bioethics Committee. Before the experiment, rats were given no food for 24 hours, water was available in unrestricted quantities. Destruction of pancreatic tissue (DPT) was induced by injections of caerulein (dose of 15 μg/kg/hr). Animals were randomly assigned to the following groups. […] After 6 hours from inducing DPT antioxidative effects were determined by means of measuring the ferric reducing ability of plasma (FRAP) and levels of the markers of oxidative stress: malonyldialdehyde and 4-hydroxynonenals (MDA+4-HNE). The measurement of pancreatic edema, the serum α-amylase activity and histopathological analysis of pancreas were carried out to assess the progress of the disease. Histopathological presentation of pancreas injury consists of edema, vacuolization or necrosis (Table 2). Since in the situation of application of a pancreas damaging agent caerulein kynurenic acid in the dose of 100 mg/kg/hr prevents or diminishes edema, vacuolization, and number of necrotic foci, kynurenic acid, its salts and derivatives may be of use in prevention and therapy of conditions leading to destruction of pancreatic tissue and are characterized by such histological picture.

[5] = system: caerulein-induced destruction of pancreatic tissue (DPT); assay: Serum α-amylase activity in caerulein-induced DPT; conditions: mean
Description: The experiments were performed using adult male Wistar rats. All experimental procedures were in compliance with currently accepted guidelines for care and use of animals. The study protocol was approved by the Bioethics Committee. Before the experiment, rats were given no food for 24 hours, water was available in unrestricted quantities. Destruction of pancreatic tissue (DPT) was induced by injections of caerulein (dose of 15 μg/kg/hr). Animals were randomly assigned to the following groups. […] After 6 hours from inducing DPT antioxidative effects were determined by means of measuring the ferric reducing ability of plasma (FRAP) and levels of the markers of oxidative stress: malonyldialdehyde and 4-hydroxynonenals (MDA+4-HNE). The measurement of pancreatic edema, the serum α-amylase activity and histopathological analysis of pancreas were carried out to assess the progress of the disease. The extent of the serum α-amylase elevation is roughly proportional to the degree of destruction of pancreatic tissue. In Table 3 it is shown that kynurenic acid in the dose of 100 mg/kg/hr prevents elevation of α-amylase in the serum of caerulein-treated rats. Kynurenic acid in the dose of 50 mg/kg/hrs was also effective. […]

O=C(O)c1cc(O)c2ccccc2n1 [KYNA, kynurenic acid]
Water content of pancreas ([1]; KYNA 50 mg/kg/hr infusion + caerulein): 73.03* % | Water content of pancreas ([1]; KYNA 100 mg/kg/hr infusion + caerulein): 68.22* % | Macroscopic edema of pancreas ([1]; KYNA 100 mg/kg/hr infusion + caerulein, macroscopic presentation): no edema was noted | MDA + 4-HNE plasma level [2]: 3.11* nmol/ml | FRAP (Ferric Reducing Ability of Plasma) [3]: 602.4* μM | Edema (0-3), histological score [4]: 1.6 ± 0.45 | Necrosis (0-3), histological score [4]: 0.0 ± 0.0 | Vacuolisation (0-3), histological score [4]: 0.8 ± 0.44 | Serum α-amylase activity ([5]; KYNA 50 mg/kg/hr + caerulein): 5262.26^#* U/l | Serum α-amylase activity ([5]; KYNA 100 mg/kg/hr + caerulein): 3495.20* U/l
